We go through 4 molecules from PMC6413231, “o-Vanillin Derived Schiff Bases and Their Organotin(IV) Compounds: Synthesis, Structural Characterisation, In-Silico Studies and Cytotoxicity” (International Journal of Molecular Sciences, 2019).

Test [1] deals with MIA (pancreatic) cancer cells. Briefly: MTT growth inhibition assay, MIA. It is filed as cell-based. Conditions: 72 h, ± standard error, read-out: Growth Inhibition Concentration, GI50. On the procedure:
(§1) The Schiff bases and their organotin(IV) compounds were screened for in vitro cytotoxicity against a panel of 12 cancer cell lines: EJ-28 (muscle invasive bladder), RT-112 (minimum-invasive bladder), HT29 (colon), U87 and SJ-G2 (glioblastoma), MCF-7 (breast), A2780 (ovarian), H460 (lung), A431 (skin), DU145 (prostate), BE2-C (neuroblastoma), MIA (pancreatic) and one normal breast cell line (MCF-10A) using the MTT metabolic assay (Figure 6). After 72 h of incubation, a dose-dependent […] effect towards the cancer cell lines was measured at very low micromolar (µM) concentrations of the compounds. The growth inhibition concentration of the Schiff bases and their organotin(IV) compounds required to inhibit 50% cell proliferation relative to the cells that were treated with DMSO (control) are given in Table 2. The stability of these compounds was assessed in DMSO as well as in a mixture of DMSO-H2O. The absorbance obtained from UV-vis spectroscopy analysis was monitored for 72 h, and an unchanged pattern in the spectra was indicative that the compounds were stable in both the solvent systems tested.
(§2) For HT29 (colon), U87 and SJ-G2 (glioblastoma), MCF-7 (breast), A2780 (ovarian), H460 (lung), A431 (skin), Du145 (prostate), BE2-C (neuroblastoma), MIA (pancreas) cell lines and one normal breast cell line, MCF-10A (normal breast), the MTT assays were performed using the following method:
(§3) Stock solutions were prepared as follows and stored at −20 °C: Trial compounds were stored as 10 mM solutions in DMSO. All cell lines were cultured in a humidified atmosphere 5% CO2 at 37 °C. The cancer cell lines were maintained in Dulbecco’s modified Eagle’s medium (DMEM) (Trace Biosciences) supplemented with 10% foetal bovine serum, 10 mM sodium bicarbonate, penicillin (100 IU/mL), streptomycin (100 μg/mL) and glutamine (4 mM). The normal cell line, MCF-10A was cultured in DMEM:F12 (1:1) cell culture media, 5% heat inactivated horse serum, supplemented with penicillin (50 IU/mL), streptomycin (50 μg/mL), 20mM Hepes, L-glutamine (2 mM), epidermal growth factor (20 ng/mL), hydrocortisone (500 ng/mL), cholera toxin (100 ng/mL) and insulin (10 μg/mL).
(§4) Cells in logarithmic growth were transferred to 96-well plates. Cytotoxicity was determined by plating cells in duplicate in 100 μL medium at a density of 2500–4000 cells/well. On day 0 (24 h after plating), when the cells were in logarithmic growth, 100 μL medium, with or without the test agent, was added to each well. After 72 h drug exposure, growth inhibitory effects were evaluated using the MTT (3-[4,5-dimethylthiazol-2-yl]-2,5-diphenyltetrazolium bromide) assay and absorbance read at 540 nm. Percentage growth inhibition was determined at a fixed drug concentration of 25 μM. A value of 100% was indicative of complete cell growth inhibition. Those analogues showing appreciable percentage growth inhibition underwent further dose-response analysis allowing for the calculation of a GI50 value. This value is the drug concentration at which cell growth is 50% inhibited based on the difference between the optical density values on day 0 and those at the end of drug exposure.

For test [2], the system named is EJ-28 (muscle invasive bladder) cancer cells. Briefly: MTT cytotoxicity assay, EJ-28. It is filed as cell-based, human. Particulars: EJ-28 cells, 72 h, ± standard error, read-out: Growth Inhibition Concentration, GI50. Here is the method: as §1
(§5) The inhibitory effect of the synthesised compounds on the growth of bladder (EJ-28 and RT-112) cancer cells was evaluated by MTT assay. […] RT-112 and EJ-28, human bladder cancer cell lines used in this study (ATCC, Manassas, VA, USA) were cultured in RPMI-1640 (High glucose) medium supplemented with 10% fetal bovine serum containing 1% penicillin. The cells were cultured at 37 °C in a humidified atmosphere of 5% CO2 in air. Cells were seeded in 96-well plates at 6000 cells per well for 24 h, then they were treated with different concentrations of compounds for 72 h. The medium was subsequently removed and the wells were washed with 200 µL of phosphate buffer saline. Aliquots of 20 µL of 3-(4,5-dimethylthiazol-2-yl)-2,5-diphenyltetrazolium bromide (MTT) was added to each well and incubated for 4 h at 37 °C. Aliquots of 200 µL of media was then removed from each well and 200 µL of DMSO was added. Optical density (OD) was measured using an ELISA plate reader at 570 nm. Control wells (100% viability), containing media and DMSO, were included in all the experiments. All data points represented an average of triplicate assays. Cytotoxicity was expressed as CD50, i.e., the concentration that reduced the absorbance of treated cells by 50% with reference to the control (untreated cells).
Background: Formazan colour is commonly taken as a measure of viable cells.

In test [3] the test system is MCF-10A (normal breast) cell line. Briefly: MTT growth inhibition assay, MCF10A. It is filed as cell-based. Particulars: MCF10A normal breast cells, 72 h, ± standard error, read-out: Growth Inhibition Concentration, GI50. On the procedure: as §1, §2, §3, §4
Test [4] deals with H460 (lung) cancer cells. Kind of test: MTT growth inhibition assay, H460. It is filed as cell-based. Conditions: 72 h, ± standard error, read-out: Growth Inhibition Concentration, GI50. On the procedure: as §1, §2, §3, §4
Test [5] relates to A431 (skin) cancer cells. Kind of test: MTT growth inhibition assay, A431. It is filed as cell-based. Particulars: 72 h, ± standard error, read-out: Growth Inhibition Concentration, GI50. On the procedure: as §1, §2, §3, §4
Test [6] has as its system U87 (glioblastoma) cancer cells. Kind of test: MTT growth inhibition assay, U87. In kind it is cell-based. Conditions: 72 h, ± standard error, read-out: Growth Inhibition Concentration, GI50. On the procedure: as §1, §2, §3, §4
Test [7] deals with Du145 (prostate) cancer cells. Briefly: MTT growth inhibition assay, Du145. Particulars: 72 h, ± standard error, read-out: Growth Inhibition Concentration, GI50. It is filed as cell-based. Here is the method:
as §1, §2, §3, §4

The test system of test [8] is HT29 (colon) cancer cells. Briefly: MTT growth inhibition assay, HT29. It is filed as cell-based. Conditions: 72 h, ± standard error, read-out: Growth Inhibition Concentration, GI50. Here is the method:
as §1, §2, §3, §4

Test [9] has as its system RT-112 (minimum-invasive bladder) cancer cells. Briefly: MTT cytotoxicity assay, RT-112. Particulars: RT-112 cells, 72 h, ± standard error, read-out: Growth Inhibition Concentration, GI50. In kind it is cell-based, human. Here is the method:
as §1, §5

In test [10] the test system is calf thymus DNA (CT-DNA). Briefly: CT-DNA binding by UV-vis absorption titration. Conditions: for Bathochromism Shift (nm) / Hypochromism, (%): CT-DNA, UV-vis absorption titration; for Gibbs Free Energy: interaction with CT-DNA. Here is the method: Both theoretical and experimental DNA binding of the synthesised organotin(IV) compounds with DNA were investigated. The interaction of organotin(IV) compounds with CT-DNA was elucidated via UV-visible absorption spectroscopy. […] The absorption spectra of diphenyltin(IV) compounds at a constant concentration (50 μM) in the absence and the presence of different concentrations of CT-DNA are shown in Figure 8. Upon increasing concentrations of CT-DNA, hypochromism and bathochromism occurred at around 350–377 nm indicating strong π–π stacking interactions between the aromatic chromophore of the organotin(IV) compounds and the nitrogeneous pair of the DNA strand [11, 70]. The same hypochromism and bathochromism shifts were also observed in other transitions. In order to compare the binding strength of the organotin(IV) compounds to CT-DNA, the intrinsic binding constants (Kb) were quantitatively determined and are presented in Table 3.
DNA binding experiments were carried out at 25°C. DNA concentration per nucleotide was determined using the molar absorption coefficient (6600 M^−1 cm^−1) at 260 nm. […] Absorption titration experiments were performed maintaining the concentration of the organotin(IV) compounds solutions at 50 µM and gradually increasing the concentration of CT-DNA. The organotin(IV) compounds were dissolved in DMSO and diluted with Tris-HCI buffer at room temperature (25 °C). The solutions were scanned over 230–600 nm. Absorbance values were recorded 10 min after the addition of DNA solution. The binding constant, Kb was determined using the equation: [DNA]/(εa−εf)=[DNA]/(εb−εf)+1/Kb(εb−εf) where [DNA] is the concentration of DNA in base pairs, εa corresponds to the apparent molar extinction coefficient Aabs/[M], εf corresponds to the extinction coefficient for the free organotin [M] and εb corresponds to the extinction coefficient for the fully bound organotin compound.

Test [11] concerns MCF-7 (breast) cancer cells. Kind of test: MTT growth inhibition assay, MCF-7. It is filed as cell-based. Particulars: MCF-7 cells, 72 h, ± standard error, read-out: Growth Inhibition Concentration, GI50. Here is the method:
as §1, §2, §3, §4

Test [12] concerns BE2-C (neuroblastoma) cancer cells. Kind of test: MTT growth inhibition assay, BE2-C. In kind it is cell-based. Conditions: 72 h, ± standard error, read-out: Growth Inhibition Concentration, GI50. Here is the method:
as §1, §2, §3, §4

Test [13] has as its system A2780 (ovarian) cancer cells. Kind of test: MTT growth inhibition assay, A2780. It is filed as cell-based. Particulars: 72 h, ± standard error, read-out: Growth Inhibition Concentration, GI50. On the procedure:
as §1, §2, §3, §4

The subject of test [14] is SJ-G2 (glioblastoma) cancer cells. Briefly: MTT growth inhibition assay, SJ-G2. It is filed as cell-based. Conditions: for GI50: MTT, 72 h, ± standard error, read-out: Growth Inhibition Concentration, GI50. Here is the method: as §1, §2, §3, §4

Turning to `COc1cccc2c1[O][Sn]([CH3])([CH3])[S]C(SCc1ccccc1C)=NN=C2` [Me2Sn(S2MoVa), Dimethyltin(IV) [S-2-Methybenzyl-β-N-(2-hydroxy-3-methoxybenzylmethylene) dithiocarbazate]], the GI50 turned out to be 3.9 ± 0.07 µM in [1]; 2.5 ± 0.78 µM in [2]; 3 ± 0.09 µM in test [3]; 3.3 ± 0.13 µM in test [4]; 3 ± 0.03 µM in test [5]; 3.6 ± 0.23 µM in test [6]. In addition, the GI50 turned out to be 3.9 ± 0.03 µM in [7]; 2.7 ± 0.1 µM in [8]; 2.4 ± 0.77 µM in [9]; 3.1 ± 0.12 µM in [11]; 2.9 ± 0.03 µM in test [12]; 3.1 ± 0.06 µM in [13]. In test [14], the GI50 was 2.5 ± 0.3 µM. Further, the “Bathochromism Shift (nm)” value in test [10] is recorded as 10 nm. Besides, the “Hypochromism, (%)” value in [10] worked out at 37.97%. In addition, the “Gibbs Free Energy” value in test [10] was -7.55 kcal/mol.

For `COc1cccc2c1[O][Sn]([CH3])([CH3])[S]C(SCc1ccccc1)=NN=C2` [Me2Sn(SBoVa), Dimethyltin(IV) [S-Benzyl-β-N-(2-hydroxy-3-methoxybenzylmethylene) dithiocarbazate]], the GI50 in test [1] came to 5 ± 0.09 µM; in test [2], 3.4 ± 0.3 µM; in test [3], 2.8 ± 0.41 µM; in test [4] it was 3.8 ± 0.1 µM; in [5] it was 3.2 ± 0.03 µM; in test [6], 4.5 ± 0.19 µM. In addition, the GI50 in [7] came out at 3.2 ± 0.13 µM; in test [8], 2.8 ± 0.15 µM; in test [9] it was 2.4 ± 0.33 µM; in test [11], 2.5 ± 0.21 µM; in [12], 2.7 ± 0.13 µM; in test [13], 3.2 ± 0.03 µM. Further, the GI50 in test [14] was 2.1 ± 0.12 µM. The “Bathochromism Shift (nm)” value in test [10] is given as 1 nm. The “Hypochromism, (%)” value in test [10] worked out at 53.26%. For the same molecule, the “Gibbs Free Energy” value in test [10] is -8.99 kcal/mol.

`COc1cccc2c1[O][Sn]([CH3])([CH3])[S]C(SCc1ccc(C)cc1)=NN=C2` [Me2Sn(S4MoVa), Dimethyltin(IV) [S-4-Methybenzyl-β-N-(2-hydroxy-3-methoxybenzylmethylene) dithiocarbazate]]: the GI50 was 8.9 ± 1.3 µM in [1]; above 5 µM in test [2]; 3.3 ± 0.15 µM in test [3]; 4.7 ± 0.46 µM in test [4]; 4.2 ± 0.34 µM in test [5]; 3.3 ± 0.18 µM in test [6]. For the same molecule, the GI50 in test [7] was 4.2 ± 0.1 µM; in test [8], 6.9 ± 3.5 µM; in test [9], above 5 µM; in test [11], 3.3 ± 0.32 µM; in test [12], 3.3 ± 0.23 µM; in [13], 3.1 ± 0.63 µM. Also, the GI50 in test [14] turned out to be 3.1 ± 0.55 µM. The “Bathochromism Shift (nm)” value in test [10] was determined as 7 nm. Further, the “Hypochromism, (%)” value in test [10] came out at 43.72%. Besides, in test [10], the “Gibbs Free Energy” value was -7.67 kcal/mol.

On to `COc1cccc2c1[O][Sn]([c]1ccccc1)([c]1ccccc1)[S]C(SCc1ccccc1)=NN=C2` [Ph2Sn(SBoVa), Diphenyltin(IV) [S-Benzyl-β-N-(2-hydroxy-3-methoxybenzylmethylene) dithiocarbazate]], for which the GI50 came to 0.43 ± 0.04 µM in test [1]; 0.32 ± 0.05 µM in test [2]; 1.3 ± 0.2 µM in test [3]; 2.2 µM in [4]; 1.6 ± 0.07 µM in test [5]; 1.1 ± 0.39 µM in test [6]. Also, the GI50 in test [7] was 1.4 ± 0.33 µM; in test [8], 1.2 ± 0.22 µM; in test [9] it was 0.58 ± 0.29 µM; in [11], 0.9 ± 0.16 µM; in [12], 0.5 ± 0.05 µM; in [13], 0.23 ± 0.03 µM. Besides, the GI50 in [14] was found to be 0.74 ± 0.15 µM. The “Bathochromism Shift (nm)” value in [10] is recorded as 12 nm. In addition, the “Hypochromism, (%)” value in test [10] is given as 70.72%. For the same molecule, the “Gibbs Free Energy” value in [10] was -8.29 kcal/mol. Further, the “greater activity than respective Schiff base” value in test [14] (GI50 comparison) is 3 fold.
